Data from patent US20150141248A1, “ANTIFUNGAL COMPOSITIONS” (DSM IP ASSETS B.V., priority 2011, published 2015).

Tests used:
Fusarium proliferatum [1] = experiment: Treatment of wounded bananas inoculated with Fusarium proliferatum (mould growth); format: in vivo; details: for Number of moulded wounds/total number of 12 wounds: bananas 20° C.; for Observed antifungal activity O: bananas
Description: Four organic, unripe (green) bananas were used per treatment. The peel of each banana was wounded thrice using a cork borer according to the method described by de Lapeyre de Bellaire and Dubois (1987). Subsequently, each wound was inoculated with 15 μl of a Fusarium proliferatum suspension containing 1×10^5 of spores/ml. […] In addition, the antifungal compositions comprised 1.00% (w/w) methylhydroxyethylcellulose (MHEC), 0.40% (w/w) xanthan gum, 0.20% (w/w) anti-foaming agent, 0.30% (w/w) citric acid, 0.39% (w/w) lactic acid and 0.11% (w/w) potassium sorbate. The pH of the composition was 4.0. […] The treated, unripe bananas were incubated in a closed box in the dark at 20° C. and a relative air humidity of 95%, which was obtained in the presence of a saturated Na2HPO4 aqueous solution. During the first 20 days of incubation, a ripe (yellow) banana was included in the closed box to elevate the ethylene gas level and thus induce ripening of the treated, unripe bananas. […]
The expected antifungal activity (E in %) of the combined antifungal composition comprising both active ingredients was calculated according to the Colby equation (Colby, 1967): […]
wherein X and Y are the observed antifungal activities (in %) of the individual active ingredients X and Y, respectively. If the observed antifungal activity (O in %) of the combination exceeds the expected antifungal activity (E in %) of the combination and the synergy factor O/E is thus >1.0, the combined application of the active ingredients leads to a synergistic antifungal effect.

Botrytis cinerea [2] = experiment: Treatment of wounded strawberries inoculated with Botrytis cinerea (mould growth); format: in vivo; details: 250 ppm natamycin; for Number of moulded wounds/total number of 12 wounds (title: Number of moulded strawberries): strawberries 20° C.; for Observed antifungal activity O: strawberries
Description: Twelve fresh, organic strawberries were used per treatment. Each strawberry was wounded with a 0.5 mm long cut and each wound was inoculated with 10 μl of a Botrytis cinerea suspension containing 1×10^5 of spores/ml. […] The antifungal compositions also comprised 1.00% (w/w) methylhydroxyethylcellulose (MHEC), 0.40% (w/w) xanthan gum, 0.20% (w/w) anti-foaming agent, 0.30% (w/w) citric acid, 0.39% (w/w) lactic acid and 0.11% (w/w) potassium sorbate. The pH of the composition was 4.0. A composition without natamycin or prothioconazole was used as control. The treated strawberries were incubated in a closed box in the dark at 20° C. for 3 days.
After 2 and 3 days of incubation, the mould growth on the strawberries was assessed in a twofold manner: (i) the number of moulded strawberries per total of 12 strawberries was counted; and (ii) the antifungal activity (in %) of the individual and combined active ingredients was determined by calculating the reduction in mould growth observed on the strawberries treated with the antifungal composition in comparison to the mould growth on the strawberries treated with the control composition according to the Colby method described in Example 4 (Colby, 1967).

Penicillium italicum = experiment: Treatment of wounded mandarins inoculated with Penicillium italicum (mould growth); format: in vivo
Description: Ten fresh, organic mandarins were used per treatment. The peel of each mandarin was wounded once using a cork borer according to the method described by de Lapeyre de Bellaire and Dubois (1987). Subsequently, each wound was inoculated with 10 μl of a Penicillium italicum suspension containing 1×10^4 of spores/ml. […] The pH of the composition was 4.0. […]

Botrytis cinerea [3] = experiment: In vitro antifungal activity, 96-well microtiter plates; format: cell-based; details: in vitro 25° C.
Description: The following compositions were tested: […] Subsequently, 100 μl of a Botrytis cinerea suspension prepared in PCB medium was used to inoculated each well with 2.5×10^3 spores/ml. […] The expected antifungal activity (E in %) of the active ingredient combination was calculated according to the Colby equation (Colby, 1967): […] wherein X and Y are the observed antifungal activities (in %) of the individual active ingredients X and Y, respectively.

Fusarium proliferatum [4] = experiment: as above; format: cell-based; details: in vitro 25° C., natamycin 2.5 ppm
Description: Subsequently, 100 μl of a Botrytis cinerea suspension prepared in PCB medium was used to inoculated each well with 2.5×10^3 spores/ml.
, the in vitro antifungal activity (%) of the individual active ingredients was assessed by calculating the reduction in mould growth observed in the presence of the active ingredient in comparison to the mould growth observed in the absence of the active ingredient. The expected antifungal activity (E in %) of the active ingredient combination was calculated according to the Colby equation (Colby, 1967): […]
The experiment was conducted as described in Example 13, except for the fact that the following compositions were tested:
Furthermore, Fusarium proliferatum was used for inoculation. The antifungal activity (in %) of the individual and combined active ingredients was determined according to the method described in Example 13.

## C[C@@H]1C/C=C/C=C/C=C/C=C/[C@H](O[C@@H]2O[C@H](C)[C@@H](O)[C@H](N)[C@@H]2O)C[C@@H]2O[C@](O)(C[C@@H](O)C[C@H]3O[C@@H]3/C=C/C(=O)O1)C[C@H](O)[C@H]2C(=O)O [Natamycin, natamycin]
Fusarium proliferatum [1]; 50 ppm natamycin, 250 ppm propiconazole or both, Day 29
  Number of moulded wounds/total number of 12 wounds: 12/12
Fusarium proliferatum [1]; 50 ppm natamycin, 250 ppm propiconazole or both, Day 32
  Number of moulded wounds/total number of 12 wounds: 12/12
Fusarium proliferatum [1]; 50 ppm natamycin, 250 ppm propiconazole or both, Day 34
  Number of moulded wounds/total number of 12 wounds: 12/12
Fusarium proliferatum [1]; 50 ppm natamycin, 250 ppm propiconazole or both, Day 36
  Number of moulded wounds/total number of 12 wounds: 12/12
Fusarium proliferatum [1]; 50 ppm natamycin, 250 ppm propiconazole or both, Day 39
  Number of moulded wounds/total number of 12 wounds: 12/12
Fusarium proliferatum [1]; 50 ppm natamycin, 250 ppm propiconazole or both, Day 42
  Number of moulded wounds/total number of 12 wounds: 12/12
Fusarium proliferatum [1]; 250 ppm natamycin, 100 ppm prothioconazole or both, Day 27
  Number of moulded wounds/total number of 12 wounds: 12/12
Fusarium proliferatum [1]; 250 ppm natamycin, 100 ppm prothioconazole or both, Day 28 and 29
  Number of moulded wounds/total number of 12 wounds: 12/12
Fusarium proliferatum [1]; 250 ppm natamycin, 500 ppm propiconazole or both, Day 34
  Number of moulded wounds/total number of 12 wounds: 12/12
Fusarium proliferatum [1]; 250 ppm natamycin, 500 ppm propiconazole or both, Day 36
  Number of moulded wounds/total number of 12 wounds: 12/12
Fusarium proliferatum [1]; 500 ppm natamycin, 150 ppm propiconazole or both, Day 26
  Number of moulded wounds/total number of 12 wounds: 8/12
Fusarium proliferatum [1]; 500 ppm natamycin, 150 ppm propiconazole or both, Day 26, listed as natamycin
  Number of moulded wounds/total number of 12 wounds: 8
Fusarium proliferatum [1]; 500 ppm natamycin, 150 ppm propiconazole or both, Days 27-29
  Number of moulded wounds/total number of 12 wounds: 8/12
Fusarium proliferatum [1]; 500 ppm natamycin, 150 ppm propiconazole or both, Days 27-29, listed as natamycin
  Number of moulded wounds/total number of 12 wounds: 8
Fusarium proliferatum [1]; 500 ppm natamycin, 150 ppm propiconazole or both, Days 31-32
  Number of moulded wounds/total number of 12 wounds: 8/12
Fusarium proliferatum [1]; 500 ppm natamycin, 150 ppm propiconazole or both, Days 31-32, listed as natamycin
  Number of moulded wounds/total number of 12 wounds: 8
Fusarium proliferatum [1]; 500 ppm natamycin, 250 ppm prothioconazole or both, Day 27, 28 and 29
  Number of moulded wounds/total number of 12 wounds: 8/12
Fusarium proliferatum [1]; 500 ppm natamycin, 250 ppm prothioconazole or both, Day 27, 28 and 29, listed as natamycin
  Number of moulded wounds/total number of 12 wounds: 8
Fusarium proliferatum [1]; 500 ppm natamycin, 1000 ppm propiconazole or both, Day 39
  Number of moulded wounds/total number of 12 wounds: 12/12
Fusarium proliferatum [1]; 500 ppm natamycin, 1000 ppm propiconazole or both, Day 42
  Number of moulded wounds/total number of 12 wounds: 12/12
Fusarium proliferatum [1]; 50 ppm natamycin, 250 ppm propiconazole or both, 29 days
  Observed antifungal activity O: 4%
Fusarium proliferatum [1]; 50 ppm natamycin, 250 ppm propiconazole or both, 32 days
  Observed antifungal activity O: 1%
Fusarium proliferatum [1]; 50 ppm natamycin, 250 ppm propiconazole or both, 34 days
  Observed antifungal activity O: 1%
Fusarium proliferatum [1]; 50 ppm natamycin, 250 ppm propiconazole or both, 36 days
  Observed antifungal activity O: 0%
Fusarium proliferatum [1]; 50 ppm natamycin, 250 ppm propiconazole or both, 39 days
  Observed antifungal activity O: 0%
Fusarium proliferatum [1]; 50 ppm natamycin, 250 ppm propiconazole or both, 42 days
  Observed antifungal activity O: 0%
Fusarium proliferatum [1]; 250 ppm natamycin, 50 ppm propiconazole or both, 23 days
  Observed antifungal activity O: 23%
Fusarium proliferatum [1]; 250 ppm natamycin, 50 ppm propiconazole or both, 27 days
  Observed antifungal activity O: 26%
Fusarium proliferatum [1]; 250 ppm natamycin, 50 ppm propiconazole or both, 29 days
  Observed antifungal activity O: 29%
Fusarium proliferatum [1]; 250 ppm natamycin, 500 ppm propiconazole or both, 34 days
  Observed antifungal activity O: 0%
Fusarium proliferatum [1]; 250 ppm natamycin, 500 ppm propiconazole or both, 36 days
  Observed antifungal activity O: 0%
Fusarium proliferatum [1]; 250 ppm natamycin, 500 ppm propiconazole or both, 39 days
  Observed antifungal activity O: 0%
Fusarium proliferatum [1]; 250 ppm natamycin, 500 ppm propiconazole or both, 42 days
  Observed antifungal activity O: 0%
Fusarium proliferatum [1]; 500 ppm natamycin, 150 ppm propiconazole or both, 27 days
  Observed antifungal activity O: 81%
Fusarium proliferatum [1]; 500 ppm natamycin, 150 ppm propiconazole or both, 28 days
  Observed antifungal activity O: 81%
Fusarium proliferatum [1]; 500 ppm natamycin, 150 ppm propiconazole or both, 29 days
  Observed antifungal activity O: 81%
Fusarium proliferatum [1]; 500 ppm natamycin, 150 ppm propiconazole or both, 31 days
  Observed antifungal activity O: 74%
Fusarium proliferatum [1]; 500 ppm natamycin, 150 ppm propiconazole or both, 32 days
  Observed antifungal activity O: 72%
Botrytis cinerea [2]; 500 ppm prothioconazole or both, Day 2
  Number of moulded wounds/total number of 12 wounds (title: Number of moulded strawberries): 10/12
Botrytis cinerea [2]; 500 ppm prothioconazole or both, Day 2, listed as natamycin
  Number of moulded wounds/total number of 12 wounds (title: Number of moulded strawberries): 10
Botrytis cinerea [2]; 500 ppm prothioconazole or both, Day 3
  Number of moulded wounds/total number of 12 wounds (title: Number of moulded strawberries): 12/12
Botrytis cinerea [2]; 500 ppm prothioconazole or both, Day 3, listed as natamycin
  Number of moulded wounds/total number of 12 wounds (title: Number of moulded strawberries): 12
Botrytis cinerea [2]; 500 ppm prothioconazole (row prints 50 ppm) or both, 3 days
  Observed antifungal activity O: 24%
Botrytis cinerea [2]; 500 ppm prothioconazole or both, 2 days
  Observed antifungal activity O: 31%
Penicillium italicum; 250 ppm natamycin, 150 ppm prothioconazole or both, 13 days
  Observed antifungal activity O: 27%
Penicillium italicum; 250 ppm natamycin, 150 ppm prothioconazole or both, 21 days
  Observed antifungal activity O: 6%
Penicillium italicum; 250 ppm natamycin, 150 ppm prothioconazole or both, 26 days
  Observed antifungal activity O: 5%
Penicillium italicum; 250 ppm natamycin, 150 ppm prothioconazole or both, 29 days
  Observed antifungal activity O: 3%
Penicillium italicum; 250 ppm natamycin, 150 ppm prothioconazole or both, 34 days
  Observed antifungal activity O: 0%
Penicillium italicum; 500 ppm natamycin, 600 ppm prothioconazole or both, 25 days
  Observed antifungal activity O: 34%
Penicillium italicum; 500 ppm natamycin, 600 ppm prothioconazole or both, 28 days
  Observed antifungal activity O: 27%
Penicillium italicum; 500 ppm natamycin, 600 ppm prothioconazole or both, 31 days
  Observed antifungal activity O: 24%
Penicillium italicum; 500 ppm natamycin, 600 ppm prothioconazole or both, 34 days
  Observed antifungal activity O: 24%
Botrytis cinerea [3]; 5 days, natamycin 0.63 ppm, propiconazole 1.00 ppm or both
  Observed antifungal activity O: 0%
Botrytis cinerea [3]; 5 days, natamycin 1.25 ppm, propiconazole 0.50 ppm, prothioconazole 0.13 ppm, or natamycin 1.25 ppm with either
  Observed antifungal activity O: 0%
Botrytis cinerea [3]; 10 days, natamycin 1.25 ppm, prothioconazole 0.13 ppm or both
  Observed antifungal activity O: 0%
Fusarium proliferatum [4]; 3 days, propiconazole 7.5 ppm or both
  Observed antifungal activity O: 0%
Fusarium proliferatum [4]; 10 days, prothioconazole 0.5 ppm or both
  Observed antifungal activity O: 0%
